Laboratory results from the NIST ThermoML archive (doi:10.1016/j.jct.2011.12.008).

Experiment: xn = mol fraction of the nth substance listed
Conditions: 101 kPa, Liquid; for viscosity: Capillary tube (Ostwald / Ubbelohde) method; for mass density: Vibrating tube method

CCCCCCn1cc[n+](C)c1.F[B-](F)(F)F [1-hexyl-3-methylimidazolium tetrafluoroborate] + CC(C)CO
Conditions	mass density [kg/m3]	viscosity [mPa·s]
293.15 K, x1 = 0.3101	989.53	18.26
293.15 K, x1 = 0.4279	1031.42	26.88
293.15 K, x1 = 0.5606	1068.28	49.75
293.15 K, x1 = 0.6901	1097.67	84.38
293.15 K, x1 = 0.8327	1123.89	138.81
293.15 K, x1 = 1	1149.05	234.68
298.15 K, x1 = 0.3101	985.83	15.47
298.15 K, x1 = 0.4279	1027.83	23.01
298.15 K, x1 = 0.5606	1064.75	37.72
298.15 K, x1 = 0.6901	1094.14	66.81
298.15 K, x1 = 0.8327	1120.44	107.94
298.15 K, x1 = 1	1145.61	178.92
303.15 K, x1 = 0.1004	870.1	5.95
303.15 K, x1 = 0.151	902.53	7.454
303.15 K, x1 = 0.2009	931.08	8.374
303.15 K, x1 = 0.3101	982.2	12.94
303.15 K, x1 = 0.4279	1024.31	18.9
303.15 K, x1 = 0.5606	1061.3	32.1
303.15 K, x1 = 0.6901	1090.76	53.77
303.15 K, x1 = 0.8327	1117.15	84.55
303.15 K, x1 = 1	1142.3	136.15
308.15 K, x1 = 0.1004	866.28	4.975
308.15 K, x1 = 0.151	898.71	6.339
308.15 K, x1 = 0.2009	927.23	7.116
308.15 K, x1 = 0.3101	978.63	10.74
308.15 K, x1 = 0.4279	1020.8	15.81
308.15 K, x1 = 0.5606	1057.79	25.74
308.15 K, x1 = 0.6901	1087.32	45.36
308.15 K, x1 = 0.8327	1113.75	67.62
308.15 K, x1 = 1	1138.95	106.65
313.15 K, x1 = 0.1004	862.42	4.108
313.15 K, x1 = 0.151	894.93	5.202
313.15 K, x1 = 0.2009	923.74	6.184
313.15 K, x1 = 0.3101	975.11	9.102
313.15 K, x1 = 0.4279	1017.21	13.43
313.15 K, x1 = 0.5606	1054.27	21.67
313.15 K, x1 = 0.6901	1083.88	37.52
313.15 K, x1 = 0.8327	1110.33	52.79
313.15 K, x1 = 1	1135.59	83.13
318.15 K, x1 = 0.1004	858.54	3.188
318.15 K, x1 = 0.151	891.18	4.388
318.15 K, x1 = 0.2009	920.15	5.281
318.15 K, x1 = 0.3101	971.5	7.758
318.15 K, x1 = 0.4279	1013.64	11.45
318.15 K, x1 = 0.5606	1050.78	18.8
318.15 K, x1 = 0.6901	1080.45	31.4
318.15 K, x1 = 0.8327	1106.94	45.07
318.15 K, x1 = 1	1132.22	69.13
323.15 K, x1 = 0.1004	854.62	2.993
323.15 K, x1 = 0.151	887.3	3.765
323.15 K, x1 = 0.2009	916.37	4.555
323.15 K, x1 = 0.3101	967.87	6.719
323.15 K, x1 = 0.4279	1010.02	9.919
323.15 K, x1 = 0.5606	1047.3	15.64
323.15 K, x1 = 0.6901	1077.03	26.31
323.15 K, x1 = 0.8327	1103.61	36.01
323.15 K, x1 = 1	1128.88	56.74
328.15 K, x1 = 0.1004	850.65	2.586
328.15 K, x1 = 0.151	883.51	3.266
328.15 K, x1 = 0.2009	912.52	3.949
328.15 K, x1 = 0.3101	964.12	5.855
328.15 K, x1 = 0.4279	1006.35	8.616
328.15 K, x1 = 0.5606	1043.79	13.62
328.15 K, x1 = 0.6901	1073.6	21.88
328.15 K, x1 = 0.8327	1100.2	29.92
328.15 K, x1 = 1	1125.5	48.36
333.15 K, x1 = 0.1004	846.65	2.21
333.15 K, x1 = 0.151	879.73	2.847
333.15 K, x1 = 0.2009	908.64	3.475
333.15 K, x1 = 0.3101	960.36	5.18
333.15 K, x1 = 0.4279	1002.74	7.6
333.15 K, x1 = 0.5606	1040.26	11.92
333.15 K, x1 = 0.6901	1070.21	18.98
333.15 K, x1 = 0.8327	1096.86	26.84
333.15 K, x1 = 1	1122.14	43.01
338.15 K, x1 = 0.1004	842.59	1.853
338.15 K, x1 = 0.151	875.79	2.526
338.15 K, x1 = 0.2009	904.74	3.056
338.15 K, x1 = 0.3101	956.56	4.566
338.15 K, x1 = 0.4279	999.08	6.374
338.15 K, x1 = 0.5606	1036.78	10.1
338.15 K, x1 = 0.6901	1066.82	15.78
338.15 K, x1 = 0.8327	1093.56	23.43
338.15 K, x1 = 1	1118.8	37.15

NCCCO [3-amino-1-propanol] + CCCCCCn1cc[n+](C)c1.F[B-](F)(F)F
Conditions	mass density [kg/m3]	viscosity [mPa·s]
293.15 K, x2 = 0	987.55	39.29
293.15 K, x2 = 0.0536	1010.87	39.35
293.15 K, x2 = 0.0969	1026.17	42.89
293.15 K, x2 = 0.202	1055.57	49.26
293.15 K, x2 = 0.3217	1080.32	56.99
293.15 K, x2 = 0.4942	1105.94	77.82
293.15 K, x2 = 0.6135	1118.92	97.27
293.15 K, x2 = 0.7276	1129.17	125.01
293.15 K, x2 = 0.8343	1137.49	163.87
293.15 K, x2 = 0.9204	1143.7	192.2
298.15 K, x2 = 0	983.55	30.43
298.15 K, x2 = 0.0536	1006.96	30.8
298.15 K, x2 = 0.0969	1022.3	33.2
298.15 K, x2 = 0.202	1051.74	37.85
298.15 K, x2 = 0.3217	1076.53	44.61
298.15 K, x2 = 0.4942	1102.24	59.65
298.15 K, x2 = 0.6135	1115.24	74.53
298.15 K, x2 = 0.7276	1125.66	95.2
298.15 K, x2 = 0.8343	1134.08	123.47
298.15 K, x2 = 0.9204	1140.23	148.27
303.15 K, x2 = 0	979.53	23.87
303.15 K, x2 = 0.0536	1003.04	24.16
303.15 K, x2 = 0.0969	1018.41	26.02
303.15 K, x2 = 0.202	1047.91	29.45
303.15 K, x2 = 0.3217	1072.75	34.55
303.15 K, x2 = 0.4942	1098.55	46.03
303.15 K, x2 = 0.6135	1111.63	57.96
303.15 K, x2 = 0.7276	1122.11	73.65
303.15 K, x2 = 0.8343	1130.63	95.84
303.15 K, x2 = 0.9204	1136.88	115.79
308.15 K, x2 = 0	975.51	19.07
308.15 K, x2 = 0.0536	999.11	19.14
308.15 K, x2 = 0.0969	1014.5	20.58
308.15 K, x2 = 0.202	1044.05	23.41
308.15 K, x2 = 0.3217	1068.95	27.53
308.15 K, x2 = 0.4942	1094.86	36.45
308.15 K, x2 = 0.6135	1108.04	45.81
308.15 K, x2 = 0.7276	1118.58	58.09
308.15 K, x2 = 0.8343	1127.18	75.38
308.15 K, x2 = 0.9204	1133.5	91.04
313.15 K, x2 = 0	971.47	15.27
313.15 K, x2 = 0.0536	995.18	15.64
313.15 K, x2 = 0.0969	1010.6	16.63
313.15 K, x2 = 0.202	1040.2	18.74
313.15 K, x2 = 0.3217	1065.16	22.05
313.15 K, x2 = 0.4942	1091.16	29.14
313.15 K, x2 = 0.6135	1104.43	36.47
313.15 K, x2 = 0.7276	1115.05	46.32
313.15 K, x2 = 0.8343	1123.73	59.62
313.15 K, x2 = 0.9204	1130.12	71.6
318.15 K, x2 = 0	967.43	12.35
318.15 K, x2 = 0.0536	991.28	12.68
318.15 K, x2 = 0.0969	1006.67	13.6
318.15 K, x2 = 0.202	1036.34	15.76
318.15 K, x2 = 0.3217	1061.36	18.42
318.15 K, x2 = 0.4942	1087.47	23.9
318.15 K, x2 = 0.6135	1100.82	28.64
318.15 K, x2 = 0.7276	1111.54	37.85
318.15 K, x2 = 0.8343	1120.28	48.22
318.15 K, x2 = 0.9204	1126.73	58.5
323.15 K, x2 = 0	963.37	10.22
323.15 K, x2 = 0.0536	987.32	10.61
323.15 K, x2 = 0.0969	1002.75	11.16
323.15 K, x2 = 0.202	1032.48	12.61
323.15 K, x2 = 0.3217	1057.55	15.89
323.15 K, x2 = 0.4942	1083.77	19.73
323.15 K, x2 = 0.6135	1097.21	24.2
323.15 K, x2 = 0.7276	1108.02	31.19
323.15 K, x2 = 0.8343	1116.83	39.61
323.15 K, x2 = 0.9204	1123.36	47.9
328.15 K, x2 = 0	959.3	8.535
328.15 K, x2 = 0.0536	983.35	8.7
328.15 K, x2 = 0.0969	998.8	9.325
328.15 K, x2 = 0.202	1028.62	10.96
328.15 K, x2 = 0.3217	1053.76	13.04
328.15 K, x2 = 0.4942	1080.08	16.58
328.15 K, x2 = 0.6135	1093.61	19.92
328.15 K, x2 = 0.7276	1104.51	26.05
328.15 K, x2 = 0.8343	1113.4	33.11
328.15 K, x2 = 0.9204	1119.94	41.26
333.15 K, x2 = 0	955.22	7.123
333.15 K, x2 = 0.0536	979.37	7.144
333.15 K, x2 = 0.0969	994.86	7.836
333.15 K, x2 = 0.202	1024.75	8.918
333.15 K, x2 = 0.3217	1049.98	10.47
333.15 K, x2 = 0.4942	1076.4	13.86
333.15 K, x2 = 0.6135	1090.05	17.14
333.15 K, x2 = 0.7276	1101.02	21.81
333.15 K, x2 = 0.8343	1109.97	27.5
333.15 K, x2 = 0.9204	1116.55	37.45
338.15 K, x2 = 0	951.14	6.045
338.15 K, x2 = 0.0536	975.37	6.221
338.15 K, x2 = 0.0969	990.91	6.676
338.15 K, x2 = 0.202	1020.88	7.634
338.15 K, x2 = 0.3217	1046.21	9.153
338.15 K, x2 = 0.4942	1072.72	11.94
338.15 K, x2 = 0.6135	1086.5	14.71
338.15 K, x2 = 0.7276	1097.55	18.64
338.15 K, x2 = 0.8343	1106.57	23.24
338.15 K, x2 = 0.9204	1113.17	32.09
